Patent US20260027068A1, “METHODS OF ADM[…]-KETAMINE” (Perception Neuroscience, Inc., priority 2022, published 2026)

System: subjects with TRD
Assay: Adverse events (TEAEs, SAEs) in the TRD study
Type: in vivo, human
Details: 30 mg (n = 33)
Description: The definitions of an AE and SAE can be found in Section F. AEs were reported by the subject (or, when appropriate, by a caregiver, surrogate, or the subject's legally authorized representative). The Investigator and any designees were responsible for detecting, documenting, and recording events that meet the definition of an AE or SAE and remained responsible for following up AEs that were serious, considered related to the study treatment or study procedures, or that caused the subject to discontinue from the study.
All AEs were collected from the signing of the ICF until the second follow-up visit (Day 15) at the time points specified in the Schedule of Activities (Section C). Medical occurrences that began before the start of study treatment but after obtaining informed consent were recorded on the Medical History/Current Medical Conditions section of the CRF, not the AE section. All SAEs were recorded and reported to the Sponsor or designee within 24 hours as indicated in Section F. The Investigator submitted any updated SAE data to the Sponsor or designee within 24 hours of it being available. Investigators were not obligated to actively seek AE or SAE information after the conclusion of study participation. However, if the Investigator learns of any SAE, including a death, at any time after a subject has been discharged from the study, and he/she considers the event to be reasonably related to the study treatment or study participation, the Investigator must promptly notify the Sponsor or designee. The method of recording, evaluating, and assessing the causality of AEs and SAEs and the procedures for completing and transmitting SAE reports are provided in Section F.
An AE is any untoward medical occurrence in a patient or subject, temporally associated with the use of study treatment, whether or not considered related to the study treatment. An AE can therefore be any unfavorable and unintended sign (including an abnormal laboratory finding), symptom, or disease (new or exacerbated) temporally associated with the use of study treatment.
If an event is not an AE per the definition above, then it cannot be an SAE even if serious conditions are met (e.g., hospitalization for signs/symptoms of the disease under study). A Serious Adverse Event (SAE) is defined as any untoward medical occurrence that, at any dose: a) results in death; b) is life-threatening; c) requires inpatient hospitalization or prolongation of existing hospitalization; d) results in persistent disability/incapacity; or e) is a congenital anomaly/birth defect. The term “life-threatening” in the definition of “serious” refers to an event in which the subject was at risk of death at the time of the event. […] In general, hospitalization signifies that the subject has been detained (usually involving at least an overnight stay) at the hospital or emergency ward for observation and/or treatment that would not have been appropriate in the physician's office or outpatient setting. Complications that occur during hospitalization are AEs. If a complication prolongs hospitalization or fulfills any other serious criteria, the event is serious. When in doubt as to whether “hospitalization” occurred or was necessary, the AE should be considered serious. […] The term disability means a substantial disruption of a person's ability to conduct normal life functions.
(MedDRA; Version 23.0 or higher). Treatment-emergent adverse events (TEAEs) are AEs with onset or worsening after the start of study treatment. The AE summaries will be primarily based on TEAEs. The number and percentage of subjects with TEAEs will be summarized by treatment group, system organ class, and preferred term for all TEAEs, treatment-related TEAEs, SAEs, serious TEAEs, severe TEAEs, TEAEs of special interest, and all TEAEs leading to study drug discontinuation. All TEAEs will be further summarized by maximum severity and causality. The TEAEs of special interest will be identified in the SAP. […]

CN[C@@]1(c2ccccc2Cl)CCCCC1=O [PCN 101]
(27): TEAE SOC Nervous system disorders: (%) of subjects
(6): TEAE PT Dizziness: (%) of subjects
3: TEAE PT Headache: number of subjects
(33): Subjects with any treatment-emergent adverse events: (%) of subjects
0: TEAE PT Alopecia: number of subjects | TEAE PT Aversion: number of subjects | TEAE PT Balance disorder: number of subjects | TEAE PT Blood pressure increased: number of subjects | TEAE PT Bruxism: number of subjects | TEAE PT Confusional state: number of subjects | TEAE PT Defect conduction intraventricular: number of subjects | TEAE PT Diarrhoea: number of subjects | TEAE PT Dissociation: number of subjects | TEAE PT Dry mouth: number of subjects | TEAE PT Dysarthria: number of subjects | TEAE PT Energy increased: number of subjects | TEAE PT Euphoric mood: number of subjects | TEAE PT Fatigue: number of subjects | TEAE PT Feeling abnormal: number of subjects | TEAE PT Feeling drunk: number of subjects | TEAE PT Hyperacusis: number of subjects | TEAE PT Hyperphagia: number of subjects | TEAE PT Hypoaesthesia oral: number of subjects | TEAE PT Hypoaesthesia: number of subjects | TEAE PT Increased appetite: number of subjects | TEAE PT Influenza like illness: number of subjects | TEAE PT Infusion site hypoaesthesia: number of subjects | TEAE PT Left ventricular hypertrophy: number of subjects | TEAE PT Lethargy: number of subjects | TEAE PT Limb discomfort: number of subjects | TEAE PT Logorrhoea: number of subjects | TEAE PT Memory impairment: number of subjects | TEAE PT Muscular weakness: number of subjects | TEAE PT Nausea: number of subjects | TEAE PT Paraesthesia: number of subjects | TEAE PT Rhinorrhoea: number of subjects | TEAE PT Sedation: number of subjects | TEAE PT Sinusitis: number of subjects | TEAE PT Skin abrasion: number of subjects | TEAE PT Slow speech: number of subjects | TEAE PT Smoke sensitivity: number of subjects | TEAE PT Tachycardia: number of subjects | TEAE PT Throat tightness: number of subjects | TEAE PT Time perception altered: number of subjects | TEAE PT Venous injury: number of subjects | TEAE PT Vision blurred: number of subjects | TEAE PT Visual impairment: number of subjects | TEAE SOC Cardiac disorders: number of subjects | TEAE SOC Eye disorders: number of subjects | TEAE SOC Gastrointestinal disorders: number of subjects | TEAE SOC Immune system disorders: number of subjects | TEAE SOC Investigations: number of subjects | TEAE SOC Metabolism and nutrition disorders: number of subjects | TEAE SOC Musculoskeletal and connective tissue disorders: number of subjects
(12): TEAE PT Derealisation: (%) of subjects | TEAE PT Somnolence: (%) of subjects | TEAE SOC Psychiatric disorders: (%) of subjects
22: Number of treatment-emergent adverse events
9: TEAE SOC Nervous system disorders: number of subjects
4: TEAE PT Derealisation: number of subjects | TEAE PT Somnolence: number of subjects | TEAE SOC Psychiatric disorders: number of subjects
11: Number of subjects with any treatment-emergent adverse events
1: TEAE PT Dyspnoea exertional: number of subjects | TEAE PT Haematuria: number of subjects | TEAE PT Hyperhidrosis: number of subjects | TEAE PT Muscle strain: number of subjects | TEAE PT Sensory disturbance: number of subjects | TEAE PT Urinary tract infection: number of subjects | TEAE PT Vertigo: number of subjects | TEAE PT Vessel puncture site erythema: number of subjects | TEAE SOC Ear and labyrinth disorders: number of subjects | TEAE SOC General disorders and administration site conditions: number of subjects | TEAE SOC Infections and infestations: number of subjects | TEAE SOC Injury, poisoning and procedural complications: number of subjects | TEAE SOC Renal and urinary disorders: number of subjects | TEAE SOC Respiratory, thoracic and mediastinal disorders: number of subjects | TEAE SOC Skin and subcutaneous tissue disorders: number of subjects
(3): TEAE PT Dyspnoea exertional: (%) of subjects | TEAE PT Haematuria: (%) of subjects | TEAE PT Hyperhidrosis: (%) of subjects | TEAE PT Muscle strain: (%) of subjects | TEAE PT Sensory disturbance: (%) of subjects | TEAE PT Urinary tract infection: (%) of subjects | TEAE PT Vertigo: (%) of subjects | TEAE PT Vessel puncture site erythema: (%) of subjects | TEAE SOC Ear and labyrinth disorders: (%) of subjects | TEAE SOC General disorders and administration site conditions: (%) of subjects | TEAE SOC Infections and infestations: (%) of subjects | TEAE SOC Injury, poisoning and procedural complications: (%) of subjects | TEAE SOC Renal and urinary disorders: (%) of subjects | TEAE SOC Respiratory, thoracic and mediastinal disorders: (%) of subjects | TEAE SOC Skin and subcutaneous tissue disorders: (%) of subjects
2: TEAE PT Dizziness: number of subjects
(9): TEAE PT Headache: (%) of subjects
(0): TEAE PT Alopecia: (%) of subjects | TEAE PT Aversion: (%) of subjects | TEAE PT Balance disorder: (%) of subjects | TEAE PT Blood pressure increased: (%) of subjects | TEAE PT Bruxism: (%) of subjects | TEAE PT Confusional state: (%) of subjects | TEAE PT Defect conduction intraventricular: (%) of subjects | TEAE PT Diarrhoea: (%) of subjects | TEAE PT Dissociation: (%) of subjects | TEAE PT Dry mouth: (%) of subjects | TEAE PT Dysarthria: (%) of subjects | TEAE PT Energy increased: (%) of subjects | TEAE PT Euphoric mood: (%) of subjects | TEAE PT Fatigue: (%) of subjects | TEAE PT Feeling abnormal: (%) of subjects | TEAE PT Feeling drunk: (%) of subjects | TEAE PT Hyperacusis: (%) of subjects | TEAE PT Hyperphagia: (%) of subjects | TEAE PT Hypoaesthesia oral: (%) of subjects | TEAE PT Hypoaesthesia: (%) of subjects | TEAE PT Increased appetite: (%) of subjects | TEAE PT Influenza like illness: (%) of subjects | TEAE PT Infusion site hypoaesthesia: (%) of subjects | TEAE PT Left ventricular hypertrophy: (%) of subjects | TEAE PT Lethargy: (%) of subjects | TEAE PT Limb discomfort: (%) of subjects | TEAE PT Logorrhoea: (%) of subjects | TEAE PT Memory impairment: (%) of subjects | TEAE PT Muscular weakness: (%) of subjects | TEAE PT Nausea: (%) of subjects | TEAE PT Paraesthesia: (%) of subjects | TEAE PT Rhinorrhoea: (%) of subjects | TEAE PT Sedation: (%) of subjects | TEAE PT Sinusitis: (%) of subjects | TEAE PT Skin abrasion: (%) of subjects | TEAE PT Slow speech: (%) of subjects | TEAE PT Smoke sensitivity: (%) of subjects | TEAE PT Tachycardia: (%) of subjects | TEAE PT Throat tightness: (%) of subjects | TEAE PT Time perception altered: (%) of subjects | TEAE PT Venous injury: (%) of subjects | TEAE PT Vision blurred: (%) of subjects | TEAE PT Visual impairment: (%) of subjects | TEAE SOC Cardiac disorders: (%) of subjects | TEAE SOC Eye disorders: (%) of subjects | TEAE SOC Gastrointestinal disorders: (%) of subjects | TEAE SOC Immune system disorders: (%) of subjects | TEAE SOC Investigations: (%) of subjects | TEAE SOC Metabolism and nutrition disorders: (%) of subjects | TEAE SOC Musculoskeletal and connective tissue disorders: (%) of subjects
